The source of these data is PubChem BioAssay (NCI).

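Compound exposure: 48 hours, 5 concentrations, 96-well plates. Here, GI50 denotes the concentration required for 50% inhibition of growth. TGI is the concentration that stops growth completely.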

Some test systems named below: DLD-1 colon; DMS 114 small cell lung; DMS 273 small cell lung; HOP-18 NSCLC; LXFL 529 NSCLC; SNB-78 CNS; M19-MEL melanoma; XF 498 CNS; RXF-631 renal; P388/ADR leukemia; SN12K1 renal.
Common to all, as to test: NCI tumour cell line growth inhibition, 48 h

With `CC(=O)OCc1cc2c(s1)C(=O)c1sccc1C2=O`, the TGI in the assay on DLD-1 colon turned out to be 0.342 µM; with DMS 114 small cell lung it was 0.283 µM; in the assay on DMS 273 small cell lung, 0.299 µM; with HOP-18 NSCLC, 0.276 µM; in the assay on LXFL 529 NSCLC it was 1 µM; in the assay with SNB-78 CNS, 28.3 µM.

On to `NS(=O)(=O)c1cc2c(cc1Cl)NC(C(=O)NNC(=O)c1ccncc1)=NS2(=O)=O`, for which the TGI in the assay with DLD-1 colon, in the assay on DMS 114 small cell lung, with DMS 273 small cell lung, with HOP-18 NSCLC, with LXFL 529 NSCLC and with M19-MEL melanoma was more than 100 µM each time. Further, in the assay with XF 498 CNS, the TGI is more than 100 µM.

As for `COC(=O)c1ccccc1NCc1cc(O)ccc1O`, the TGI is 43 µM with DLD-1 colon; more than 100 µM with DMS 273 small cell lung; 27.6 µM in the assay with HOP-18 NSCLC; 32.9 µM with LXFL 529 NSCLC; 31.7 µM in the assay with M19-MEL melanoma; 66.6 µM in the assay with SNB-78 CNS. Besides, the TGI in the assay with XF 498 CNS amounted to 33.1 µM.

Regarding `COc1ccc(Sc2ccccc2[N+](=O)[O-])cc1`, the TGI with DLD-1 colon, in the assay on DMS 273 small cell lung, in the assay with HOP-18 NSCLC, in the assay on LXFL 529 NSCLC, with M19-MEL melanoma and in the assay with RXF-631 renal was more than 100 µM in each case. The compound further showed a TGI in the assay on SNB-78 CNS of 98.4 µM.

`COC1=C(C)C(=O)C2=C(C1=O)C1C3CC4=C(C(=O)C(OC)=C(C)C4=O)C(CNC(=O)C(C)=O)N3C(C#N)C(C2)N1C` (stereo not given): the GI50 in the assay on DLD-1 colon is 40.4 pM; in the assay on DMS 114 small cell lung, 21.5 pM; in the assay with DMS 273 small cell lung, 25.9 pM; with HOP-18 NSCLC, 0.000212 µM; with M19-MEL melanoma it was 94.6 pM; with RXF-631 renal, 0.000385 µM. For the same compound, the GI50 with SNB-78 CNS was 57.9 pM. The TGI in the assay on DLD-1 colon amounted to 0.278 µM; with P388/ADR leukemia, 0.349 µM.

For the compound `CCCCCCCCCCCC1=C(O)C(=O)C=C(O)C1=O`, the TGI amounted to 51.9 µM in the assay with DLD-1 colon; 11.9 µM in the assay with DMS 114 small cell lung; 15.7 µM in the assay with DMS 273 small cell lung; 14.6 µM with HOP-18 NSCLC; 250 µM with P388/ADR leukemia; 30.3 µM with SN12K1 renal. In the assay on SNB-78 CNS, this compound yielded a TGI of 149 µM.

As for `COC(=O)C1=C(C)C(=O)C2(CCCCCC2C(=O)OC)C1` (stereo not given), the TGI in the assay with DLD-1 colon, in the assay with DMS 114 small cell lung, in the assay on DMS 273 small cell lung, in the assay with HOP-18 NSCLC, with LXFL 529 NSCLC and with M19-MEL melanoma was more than 100 µM in each case. Moreover, the TGI in the assay on SNB-78 CNS was more than 100 µM.
